# Laboratory results published in ChEMBL document CHEMBL1126949 (J Med Chem, 1993).
# Target: D(3) dopamine receptor (Rattus norvegicus, UniProt P19020)
# Test: biochemical
# D(3) dopamine receptor, sequence (P19020 whole entry): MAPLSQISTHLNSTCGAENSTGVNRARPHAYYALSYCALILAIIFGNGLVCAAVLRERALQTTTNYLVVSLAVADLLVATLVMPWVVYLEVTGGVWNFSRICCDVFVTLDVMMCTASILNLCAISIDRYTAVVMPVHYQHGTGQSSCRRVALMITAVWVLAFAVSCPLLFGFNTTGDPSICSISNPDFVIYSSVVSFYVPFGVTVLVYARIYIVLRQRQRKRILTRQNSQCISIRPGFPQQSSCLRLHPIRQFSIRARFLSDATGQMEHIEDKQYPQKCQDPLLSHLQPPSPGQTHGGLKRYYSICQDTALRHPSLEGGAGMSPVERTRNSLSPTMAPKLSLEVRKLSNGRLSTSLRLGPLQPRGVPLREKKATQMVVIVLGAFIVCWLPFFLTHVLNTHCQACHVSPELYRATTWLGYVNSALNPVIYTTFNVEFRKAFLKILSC
smiles,measurement,value
CCCN(CCC)C1CCc2cccc(O)c2C1 (stereo unspecified) [8-OH-DPAT],Ki,248 nM
